{"source": "patent US4332805A", "about": "“Decahydroquinolinol derivatives and methods of treating cardiac arrythmias or inducing local anaesthesia with them” (priority 1979, dated 1982)", "key": {"acute toxicity [1]": {"assay": "acute toxicity", "settings": "rat, in vivo", "from_the_text": "Acute toxicity tests were undertaken with Compound A on mice and rats."}, "acute toxicity [2]": {"assay": "acute toxicity", "settings": "mouse, in vivo, mice"}, "convulsant dose": {"assay": "convulsant dose", "format": "in vivo", "settings": "mice per os; dog i.v."}, "[3]": {"assay": "ventricular fibrillation provoked by chloroform or by calcium chloride", "settings": "in vivo"}, "[4]": {"assay": "local anaesthesia, CHANCE and LOBSTEIN technique (eyelid closure after touching cornea)", "format": "in vivo, guinea-pig", "settings": "for local anaesthesia, % of animals / local anaesthesia, % of animals protected: guinea-pig eye; for local anaesthesia, % of animals: 0.1% solution, 5 minutes after administration; for local anaesthesia, % of animals protected: 0.5% solution", "description": "In this way, the percentage of locally anaesthetized animals were determined with respect to both the dose of compound given and the length of time elapsing after administration."}, "[5]": {"assay": "motor activity (spontaneous motility) / sedation", "format": "in vivo, mouse"}, "[6]": {"assay": "arrhythmia-inducing and lethal dose in continuous venous perfusion", "format": "in vivo", "settings": "anaesthetized dog"}, "[7]": {"assay": "hypotensive activity / myocardial contractility", "settings": "in vivo"}, "[8]": {"assay": "LAWSON test: protection against chloroform-induced ventricular fibrillation", "format": "in vivo, mice", "settings": "Mus musculus, po", "description": "The arrhythmia was induced, in this test, by inhalation of chloroform until breathing stopped.\nFor each dose of the substance to be studied, batches of 10 female mice, each of about 20 g, were used. These mice had been fasting for 18 hours before the test. A batch of 10 animals was used as control group.\nA dose of the compound to be studied was first administered by intragastric route except to the controls which only received the solvent used with the compound in question. Thirty minutes later, the animals were placed under a dome-shaped receptacle containing a high concentration of chloroform obtained by means of a strongly impregnated pad.\nThe animals were removed when totally asphyxiated (about 2 minutes later), the thorax was rapidly opened and the ventricular rhythm observed. The dose of the compound under study which protected 50% of the animals against ventricular fibrillation was then determined.\nThis protective dose is expressed as AD50 in mg/kg in the following Table. […]\nAnother comparative test was performed under the same conditions with\nseveral compounds included within the scope of U.S. Pat. No. 3,882,129 at\nthe single dose of 100 mg/kg by intragastric route.\nThe following results were obtained which are expressed in percentage of protection obtained against the arrhythmic effect at the studied dose: […]"}, "[9]": {"assay": "LAWSON test: protection against chloroform-induced ventricular fibrillation", "format": "in vivo", "settings": "mice, 75 mg/kg intragastric"}, "[10]": {"assay": "protection against toxic effects of epinephrine (antiadrenergic properties)", "format": "in vivo", "settings": "mice, 50 mg/kg intragastric, 30 minutes before 3 mg/kg i.v. epinephrine", "description": "Tests carried out with Compound A have shown that a dose of 50 mg/kg administered by intragastric route to mice 30 minutes before the intravenous injection of 3 mg/kg of epinephrine gave no protection against the toxic effects of this catecholamine."}, "[11]": {"settings": "30 minutes after administration"}, "[12]": {"settings": "0.5 h, female mice, intragastric, 30 minutes before chloroform, salts (hydrochloride), read-out: AD50 (dose protecting 50% of the animals against ventricular fibrillation)"}}, "note": "Structures can show the parent of a compound that is named as a salt. Where two headings read alike, the source gives them in different places."}
{"smiles": "NC(=O)O[C@@H]1CCN(CCCOc2ccc(F)cc2)[C@H]2CCCC[C@H]12", "note": "(relative stereo) [Compound A, 4-Carbamoyloxy-1-[3-(4-fluoro-phenoxy)-propyl]-trans-decahydroquinoline (axial form)]", "values": [{"measurement": "LD50", "setting": "acute toxicity [1]; iv", "value": 47, "unit": "mg/kg"}, {"measurement": "LD50", "setting": "acute toxicity [1]; po", "value": "> 2000", "unit": "mg/kg"}, {"measurement": "LD50", "setting": "acute toxicity [2]; po, intragastric", "value": 750, "unit": "mg/kg"}, {"measurement": "LD50", "setting": "acute toxicity [2]; intravenous", "value": 42.5, "unit": "mg/kg"}, {"measurement": "safety margin between effective antiarrhythmic dose and convulsant dose", "setting": "convulsant dose", "value": "good safety margin"}, {"measurement": "protection against ventricular fibrillation provoked by chloroform or by calcium chloride", "setting": "[3]", "value": "provides protection against ventricular fibrillation provoked by chloroform or by calcium chloride"}, {"measurement": "local anaesthetic activity compared with lidocaine", "setting": "[4]; guinea-pig", "value": "more active than lidocaine as a local anaesthetizing agent and exerts its effects over a longer period of time"}, {"measurement": "local anaesthesia, % of animals", "setting": "[4]", "value": 58, "unit": "%"}, {"measurement": "local anaesthesia, % of animals protected", "setting": "[4]; [11]", "value": 35, "unit": "%"}, {"measurement": "sedative / antiadrenergic at antiarrhythmic doses", "setting": "[5]; mice, 50 mg/kg intragastric", "value": "neither sedative nor antiadrenergic at antiarrhythmic doses"}, {"measurement": "depression of spontaneous motility", "setting": "[5]; mice, 50 mg/kg intragastric, 30 minutes later", "value": "no depression of spontaneous motility"}, {"measurement": "motor activity", "setting": "[5]; mouse", "value": "does not modify motor activity"}, {"measurement": "lethal dose", "setting": "[6]", "value": "84.1 ± 7.1", "unit": "mg/kg"}, {"measurement": "TD50", "setting": "[6]; in vivo, iv", "value": "80.6 ± 6", "unit": "mg/kg"}, {"measurement": "hypotensive activity and depression of myocardial contractility", "setting": "[7]", "value": "neither a hypotensive agent since its mechanism of action does not result from antiadrenergic properties nor is it a depressant of myocardial contractility"}, {"measurement": "ED50", "setting": "[8]; [12]", "value": 45, "unit": "mg/kg"}, {"measurement": "ED50", "setting": "[8]; mice, per os, read-out: Antiarrhythmic dose (LAWSON AD50 test)", "value": 45, "unit": "mg/kg"}, {"measurement": "% of protection", "setting": "[9]; [11]", "value": 80, "unit": "%"}, {"measurement": "% of protection", "setting": "[9]; 60 minutes after administration", "value": 65, "unit": "%"}, {"measurement": "% of protection", "setting": "[9]; 120 minutes after administration", "value": 60, "unit": "%"}, {"measurement": "% of protection", "setting": "[9]; 180 minutes after administration", "value": 45, "unit": "%"}, {"measurement": "% of protection", "setting": "[9]; 240 minutes after administration", "value": 30, "unit": "%"}, {"measurement": "protection against the toxic effects of epinephrine", "setting": "[10]", "value": "no protection"}]}
{"smiles": "CCN(CC)CC(=O)Nc1c(C)cccc1C", "note": "[lidocaine, reference compound]", "values": [{"measurement": "local anaesthesia, % of animals", "setting": "[4]", "value": 26, "unit": "%"}, {"measurement": "local anaesthesia, % of animals protected", "setting": "[4]; 15 minutes after administration", "value": 35, "unit": "%"}, {"measurement": "ED50", "setting": "[8]; 0.5 h, read-out: AD50 (dose protecting 50% of the animals against ventricular fibrillation)", "value": 35, "unit": "mg/kg"}]}
{"smiles": "CCCNC(=O)O[C@@H]1CCN(CCCOc2ccc(F)cc2)[C@H]2CCCC[C@H]12", "note": "(relative stereo) [n-propyl, 3, O, 4-fluoro-phenyl, axial, 1-[3-(4-Fluoro-phenoxy)-propyl]-4-(N-n-propyl-carbamoyloxy)-trans-decahydroquinoline hydrochloride (axial form)]", "values": [{"measurement": "ED50", "setting": "[8]; [12]", "value": 80, "unit": "mg/kg"}]}
{"smiles": "NC(=O)O[C@@H]1CCN(CCOc2ccc(Br)cc2)[C@H]2CCCC[C@H]12", "note": "(relative stereo) [hydrogen, 2, O, 4-bromo-phenyl, axial, 1-[2-(4-Bromo-phenoxy)-ethyl]-4 carbamoyloxy-trans-decahydroquinoline hydrochloride (axial form)]", "values": [{"measurement": "ED50", "setting": "[8]; [12]", "value": 90, "unit": "mg/kg"}]}
{"smiles": "NC(=O)O[C@@H]1CCN(CCCOc2ccc(Br)cc2)[C@H]2CCCC[C@H]12", "note": "(relative stereo) [hydrogen, 3, O, 4-bromo-phenyl, axial, 1-[3-(4-Bromo-phenoxy)-propyl]-4-carbamoyloxy-trans-decahydroquinoline hydrochloride (axial form)]", "values": [{"measurement": "ED50", "setting": "[8]; [12]", "value": 65, "unit": "mg/kg"}]}
{"smiles": "NC(=O)O[C@@H]1CCN(CCCOc2cccc3ccccc23)[C@H]2CCCC[C@H]12", "note": "(relative stereo) [hydrogen, 3, O, 1-naphthyl, axial, 4-Carbamoyloxy-1-[3-(1-naphthyloxy)-propyl]-trans-decahydroquinoline hydrochloride (axial form)]", "values": [{"measurement": "ED50", "setting": "[8]; [12]", "value": "> 100", "unit": "mg/kg"}]}
{"smiles": "COc1ccc(OCCCN2CC[C@@H](OC(N)=O)[C@H]3CCCC[C@@H]32)cc1", "note": "(relative stereo) [hydrogen, 3, O, 4-methoxy-phenyl, axial, 4-Carbamoyloxy-1-[3-(4-methoxy-phenoxy)-propyl]-trans-decahydroquinoline hydrochloride (axial form)]", "values": [{"measurement": "ED50", "setting": "[8]; [12]", "value": "> 100", "unit": "mg/kg"}]}
{"smiles": "COc1ccccc1OCCN1CC[C@@H](OC(N)=O)[C@H]2CCCC[C@@H]21", "note": "(relative stereo) [hydrogen, 2, O, 2-methoxy-phenyl, axial, 4-Carbamoyloxy-1-[2-(2-methoxy-phenoxy)-ethyl]-trans-decahydroquinoline hydrochloride (axial form)]", "values": [{"measurement": "ED50", "setting": "[8]; [12]", "value": 75, "unit": "mg/kg"}]}
